Here are results for three molecules from patent US20200102353A1, “HUMAN ENDOGENOUS RETROVIRAL PROTEIN” (priority 2017, published 2020).

One experiment concerns HEMO gene. The experiment can be described thus: Effect of DNA demethylation on HEMO gene expression, RT-qPCR. The format is cell-based, human. The note with it: for dose at which HEMO transcripts were detectable by qRT-PCR: 3-day treatment, doses 0.1 to 5 μM. As to the method:
For treatment with 5-Aza-2′-deoxycytidine (5-Aza-dC; SIGMA-ALDRICH), 2×10^5 BeWo and 293T cells were plated in 6-well dishes. Doses ranging from 0.1 to 5 μM of 5-Aza-dC were then added to the culture for 3 days, with fresh medium each day. Cells were harvested for RNA extraction one day later.
Total RNAs from human tissues and cells were either purchased from ZYAGEN (San Diego), or isolated using the RNAeasy Isolation Kit (QIAGEN) according to the manufacturer's instructions, and treated with Dnase I (AMBION). Reverse transcription was performed with 1 μg of RNA using the MLV reverse-transcriptase (APPLIED BIOSYSTEMS). Real-time quantitative PCR was carried out with 5 μl of diluted (1:20) cDNA in a final volume of 25 μl by using SYBR green PCR master mix (QIAGEN). qPCR was carried out with an ABI Prism 7000 sequence detection system, using primers listed in Table 4 above. Transcript levels were normalized relative to the amount of a housekeeping gene (RPLPO or G6PD) mRNA. Samples were assayed in duplicate.

The test system of experiment [1] is HEMO release in the supernatant. Kind of experiment: Inhibition of HEMO release (shedding) in supernatant of phCMV-HEMO transfected 293T cells, Western blot. The format is cell-based, human. Particulars: 293T cells transfected with phCMV-HEMO, treated 3 days, BATIMASTAT 0.1 to 10 μM, MARIMASTAT 0.1 to 10 μM, GM6001 1 to 50 μM. As to the method: For treatment with metalloprotease inhibitors, 5×10^5 293T cells were seeded in 6-well dishes with 2 mL/well of culture medium. One day after seeding, cells were transiently transfected using 1.5 μg phCMV-HEMO plasmid and 4.5 μL Lipofectamine LTX (THERMOFISHER) per well. One day post-transfection, cells were incubated with culture medium supplemented with the indicated concentrations of metalloprotease inhibitors (CALBIOCHEM): BATIMASTAT (0.1 to 10 μM), MARIMASTAT (0.1 to 10 μM) or GM6001 (1 to 50 μM). Medium with inhibitors was replenished for 2 other days, and supernatants were collected and filtered through 0.45 μm MILLIPORE filters one day later. Cells were harvested the same day for protein analysis.
Samples, cell supernatants or cell lysates were analyzed by SDS/PAGE on gradient precast gels (NuPAGE NOVEX 4-12% Bis-Tris gels, LIFE TECHNOLOGIES), and transfer onto nitrocellulose membranes using a semi-dry transfer system. […] Proteins were detected by using an enhanced chemiluminescence system (ECL, PIERCE).
(In general: A western blot detects proteins with antibodies after separation by electrophoresis.)

Take `Nc1ncn([C@H]2C[C@H](O)[C@@H](CO)O2)c(=O)n1` [5-Aza-dC, 5-Aza-2′-deoxycytidine]: the “dose at which HEMO transcripts were detectable by qRT-PCR” value came to 5 µM with HEMO gene (293T cells) and 0.1 µM with HEMO gene (BeWo cells). In addition, in the experiment with HEMO gene (CaCo-2 cells (HEMO-expressing), similar 5-Aza-dC treatment), the “HEMO gene transcript level after treatment” value is given as “not further amplified”.

Take `CNC(=O)[C@@H](NC(=O)[C@H](CC(C)C)[C@H](O)C(=O)NO)C(C)(C)C` [MARIMASTAT]: in experiment [1], the “HEMO release in the supernatant” value was “clearly inhibited HEMO release in the supernatant”.

Take `CNC(=O)[C@H](Cc1c[nH]c2ccccc12)NC(=O)[C@@H](CC(=O)NO)CC(C)C` [GM6001]: the “HEMO release in the supernatant” value in experiment [1] is recorded as “clearly inhibited HEMO release in the supernatant”.
